We go through 2 compounds from patent publication US8809335B2, “Pyrazolopyrimidine kinase inhibitors” (Vertex Pharmaceuticals Incorporated, priority 2010, dated 2014).

Each structure is given as a SMILES string.

What all share (format): biochemical
One test has as its target PKC delta kinase (Homo sapiens, UniProt Q05655). Description: PKC delta coupled-enzyme kinase assay (NADH consumption). Particulars: 150 μM ATP, 46 nM PKC delta, 30° C. Here is the method:
An assay buffer solution was prepared which consisted of 100 mM HEPES (pH 7.5), 10 mM MgCl2, 25 mM NaCl, 0.1 mM EDTA and 0.01% Brij. An enzyme buffer containing reagents to final assay concentrations of 0.002% Triton X-100, 200 μg/mL Phosphatidylserine, 20 μg/mL Diacylglycerol, 360 μM NADH, 3 mM phosphoenolpyruvate, 70 μg/mL pyruvate kinase, 24 μg/mL lactate dehydrogenase, 2 mM DTT, 150 μM substrate peptide (ERMRPRKRQGSVRRRV SEQ ID NO. 2) and 46 nM PKC delta kinase was prepared in assay buffer. To 16 μL of this enzyme buffer, in a 384 well plate, was added 1 μL of VRT stock solution in DMSO. The mixture was allowed to equilibrate for 10 mins at 30° C. The enzyme reaction was initiated by the addition of 16 μL stock ATP solution prepared in assay buffer to a final assay concentration of 150 μM. Initial rate data was determined from the rate of change of absorbance at 340 nm (corresponding to stoichiometric consumption of NADH) using a Molecular Devices Spectramax plate reader (Sunnyvale, Calif.) over 15 mins at 30° C. For each Ki determination 12 data points covering the VRT concentration range of 0-20 μM were obtained in duplicate (DMSO stocks were prepared from an initial 10 mM VRT stock with subsequent 1:2 serial dilutions). Ki values were calculated from initial rate data by non-linear regression using the Prism software package (Prism 4.0a, Graphpad Software, San Diego, Calif.).

The target in a further test is PKC alpha kinase (Homo sapiens, UniProt P17252). Description: PKC alpha coupled-enzyme kinase assay (NADH consumption). Particulars: 130 μM ATP, 4.5 nM PKC alpha, 30° C. The procedure: An assay buffer solution was prepared which consisted of 100 mM HEPES (pH 7.5), 10 mM MgCl2, 25 mM NaCl, 0.1 mM EDTA, 100 μM CaCl2 and 0.01% Brij. An enzyme buffer containing reagents to final assay concentrations of 0.002% Triton X-100, 100 μg/mL Phosphatidylserine, 20 μg/mL Diacylglycerol, 360 μM NADH, 3 mM phosphoenolpyruvate, 70 μg/mL pyruvate kinase, 24 μg/mL lactate dehydrogenase, 2 mM DTT, 150 μM substrate peptide (RRRRRKGSFKRKA SEQ ID NO. 1) and 4.5 nM PKC alpha kinase was prepared in assay buffer. To 16 μL of this enzyme buffer, in a 384 well plate, was added 1 μL of VRT stock solution in DMSO. The mixture was allowed to equilibrate for 10 mins at 30° C. The enzyme reaction was initiated by the addition of 16 μL stock ATP solution prepared in assay buffer to a final assay concentration of 130 μM. Initial rate data was determined from the rate of change of absorbance at 340 nm (corresponding to stoichiometric consumption of NADH) using a Molecular Devices Spectramax plate reader (Sunnyvale, Calif.) over 15 mins at 30° C. […] Ki values were calculated from initial rate data by non-linear regression using the Prism software package (Prism 4.0a, Graphpad Software, San Diego, Calif.).

The target in the next test is PKC theta kinase (Homo sapiens, UniProt Q04759). Description: PKC theta coupled-enzyme kinase assay (NADH consumption). Particulars: 240 μM ATP, 18 nM PKC theta, 30° C. Here is the method: An assay buffer solution was prepared which consisted of 100 mM HEPES (pH 7.5), 10 mM MgCl2, 25 mM NaCl, 0.1 mM EDTA and 0.01% Brij. An enzyme buffer containing reagents to final assay concentrations of 0.00001% Triton X-100, 200 μg/mL Phosphatidylserine, 20 μg/mL Diacylglycerol, 360 μM NADH, 3 mM phosphoenolpyruvate, 70 μg/mL pyruvate kinase, 24 μg/mL lactate dehydrogenase, 2 mM DTT, 100 μM substrate peptide (ERMRPRKRQGSVRRRV SEQ ID NO. 1) and 18 nM PKC theta kinase was prepared in assay buffer. To 60 μL of this enzyme buffer, in a 384 well plate, was added 2 μL of VRT stock solution in DMSO. The mixture was allowed to equilibrate for 10 mins at 30° C. The enzyme reaction was initiated by the addition of 5 μL stock ATP solution prepared in assay buffer to a final assay concentration of 240 μM. Initial rate data was determined from the rate of change of absorbance at 340 nm (corresponding to stoichiometric consumption of NADH) using a Molecular Devices Spectramax plate reader (Sunnyvale, Calif.) over 15 mins at 30° C. For each Ki determination 12 data points covering the VRT concentration range of 0-20 μM were obtained in duplicate (DMSO stocks were prepared from an initial 10 mM VRT stock with subsequent 1:2 serial dilutions). Ki values were calculated from initial rate data by non-linear regression using the Prism software package (Prism 4.0a, Graphpad Software, San Diego, Calif.).
Chain of PKC theta kinase (Q04759 whole entry): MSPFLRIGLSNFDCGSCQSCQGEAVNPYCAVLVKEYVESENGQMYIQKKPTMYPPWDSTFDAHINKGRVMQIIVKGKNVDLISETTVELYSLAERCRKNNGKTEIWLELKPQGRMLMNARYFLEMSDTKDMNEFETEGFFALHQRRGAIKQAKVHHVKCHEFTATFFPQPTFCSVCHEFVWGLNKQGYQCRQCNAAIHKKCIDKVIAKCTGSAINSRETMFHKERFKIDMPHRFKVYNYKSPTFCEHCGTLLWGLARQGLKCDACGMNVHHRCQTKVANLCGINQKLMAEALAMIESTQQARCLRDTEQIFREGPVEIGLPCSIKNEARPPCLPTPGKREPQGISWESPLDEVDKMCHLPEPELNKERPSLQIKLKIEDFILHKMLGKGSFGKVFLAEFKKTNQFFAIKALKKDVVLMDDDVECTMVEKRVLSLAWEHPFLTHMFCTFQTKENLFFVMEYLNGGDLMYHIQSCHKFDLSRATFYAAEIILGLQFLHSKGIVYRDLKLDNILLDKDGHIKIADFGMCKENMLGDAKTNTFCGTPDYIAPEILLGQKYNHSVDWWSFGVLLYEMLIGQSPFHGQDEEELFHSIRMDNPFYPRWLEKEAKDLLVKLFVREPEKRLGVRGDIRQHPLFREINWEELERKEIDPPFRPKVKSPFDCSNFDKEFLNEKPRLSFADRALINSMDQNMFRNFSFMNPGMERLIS

Chain of PKC delta kinase (Q05655 whole entry): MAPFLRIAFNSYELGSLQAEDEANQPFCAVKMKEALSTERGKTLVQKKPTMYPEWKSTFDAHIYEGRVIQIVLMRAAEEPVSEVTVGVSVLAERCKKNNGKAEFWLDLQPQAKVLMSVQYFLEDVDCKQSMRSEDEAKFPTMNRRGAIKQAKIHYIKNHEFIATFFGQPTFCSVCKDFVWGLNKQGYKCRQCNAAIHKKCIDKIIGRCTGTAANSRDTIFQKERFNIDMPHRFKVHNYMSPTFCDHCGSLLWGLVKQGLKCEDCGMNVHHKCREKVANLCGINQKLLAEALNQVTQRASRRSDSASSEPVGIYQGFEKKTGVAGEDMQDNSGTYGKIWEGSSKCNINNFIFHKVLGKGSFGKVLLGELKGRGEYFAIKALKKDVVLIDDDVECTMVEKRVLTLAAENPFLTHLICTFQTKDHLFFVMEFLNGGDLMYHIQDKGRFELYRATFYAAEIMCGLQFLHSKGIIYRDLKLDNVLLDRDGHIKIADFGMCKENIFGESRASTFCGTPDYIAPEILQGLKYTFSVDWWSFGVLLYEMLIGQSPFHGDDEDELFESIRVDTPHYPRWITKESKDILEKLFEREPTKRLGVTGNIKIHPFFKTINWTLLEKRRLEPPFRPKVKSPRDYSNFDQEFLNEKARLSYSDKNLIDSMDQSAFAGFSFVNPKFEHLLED

Consider `CCOc1ncnc2[nH]nc(-c3cccc(N4CCNC(CC(C)C)C4)n3)c12` (stereo not drawn) [Compound 1, 4-ethoxy-3-(6-(3-isobutylpiperazin-1-yl)pyridin-2-yl)-1H-pyrazolo[3,4-d]pyrimidine], for which the Ki at PKC delta kinase is over 1.25 µM; at PKC alpha kinase, over 1.25 µM; on PKC theta kinase, under 2.8 µM.

In the case of `CC(C)[C@@](C)(O)[C@@H]1CN(c2nc(-c3n[nH]c4ncncc34)c(F)cc2F)CCN1` [Compound 2, (R)-2-((S)-4-(3,5-difluoro-6-(1H-pyrazolo[3,4-d]pyrimidin-3-yl)pyridin-2-yl)piperazin-2-yl)-3-methylbutan-2-ol], the Ki was under 0.5 µM at PKC delta kinase, under 2.8 µM at PKC alpha kinase and under 0.001 µM at PKC theta kinase.

One may read the Ki as the dissociation constant of the complex between target and ligand, obtained from inhibition or displacement. Read a low Ki as a stronger hold on the target.
